The values that follow are results of earlier work, collected in patent publication US20080274188A1, “Oral Vehicle For Systemic Pharmaceuticals” (priority 2005, published 2008).

The conditions of this data set: for Solubility water: words.

Like-named read-outs stand apart in the source and are kept apart here.

For `CC(=O)Nc1ccc(O)cc1` [Acetaminophen], the Solubility water result is “Cold-v slight” (cold water) and “Hot-considerably more” (hot water).

In the case of `Cc1onc(-c2ccccc2Cl)c1C(=O)N[C@@H]1C(=O)N2[C@@H]1SC(C)(C)[C@@H]2C(=O)O` [Cloxacillin, Cloxacillin (Na monohydrate)], the Solubility water entry (temperature not stated) is on record as “soluble”.

Take `COc1ccc2c3c1O[C@H]1[C@@H](O)C=C[C@H]4[C@@H](C2)N(C)CC[C@@]341` [Codeine phosphate]: the “Solubility water (ml of water for 1 g)” value (temperature not stated, 1 g in the stated ml) was 1 g in 2.5 ml water.

As to `C1CNCCN1` [Piperazine], the Solubility water entry (temperature not stated) is listed as “Freely soluble”.
